Measured values taken from a melting point compilation (Tetko et al.; mined from patent text by program, amines drawn as free bases though some values may be those of a salt).

| Compound | melting point [°C] |
| --- | --- |
| COC(=O)c1cccn2c(C(=O)c3ccc(N4C[C@H](CNC(C)=O)OC4=O)cc3)cnc12 | 202 to 204 |
| O=C1c2ccccc2-n2cnc(Cl)c2[C@@H]2CCN12 | 210 to 214 |
| NS(=O)(=O)c1cc2c(s1)CN(CCO)CC2 | 184 to 186 |
| Cc1[nH]c(CN(C)C)c(C)c1-c1ccnc(Nc2ccc(F)cc2)n1 | 88.4 to 91.6 |
| CC(Cc1c[nH]c2ccccc12)(NC(=O)OC1C2CC3CC(C2)CC1C3)C(=O)NCC(NC(=O)C1CC1C(=O)O)c1ccccc1 (stereo unspecified) | 138 to 142 |
| COC(=O)c1ccc(C(=O)NN)cn1 | 177 to 180 |
| CCCN(CCC)c1c(CC)nn2c(-c3ccc(OC)cc3Cl)cccc12 | 73.6 to 76 |
| CC1(C)[C@H](Cc2noc(C3CCCCC3)n2)CC[C@]1(C)NCC(=O)N1C[C@@H](F)C[C@H]1C#N | 152 to 153 |
| CN1C(=O)C(F)N=C(c2ccccc2)c2cc(Cl)ccc21 (stereo unspecified) | 145 to 147 |
| O=[N+]([O-])c1ccc(S(=O)(=O)NCc2ccc(Cl)cc2)c([N+](=O)[O-])c1 | 161 to 162 |
| CCOC(=O)C1=C(C)NC(C)=C(C(=O)OCC)C1c1c(C)sc2ccccc12 | 191 to 193 |
| CC(C)(C)OC(=O)[C@@H]1CCCN2C(=O)CC[C@H](NC(=O)c3ccccc3)C(=O)N12 | 74 to 76 |
| Clc1ccc2c(c1)C(c1ccccc1)=NCc1nnc(CN3CCCCC3)n1-2 | 202 to 203 |
| CSc1ccc(C(CC2CCCC2)C(=O)O)cc1C(F)(F)F (stereo unspecified) | 105 to 106 |
| COc1ccc(N(C(=O)CN2C(=O)C(Cc3cc(C)nn3Cc3ccccc3)C(=O)N(c3ccccc3)c3ccccc32)C(C)C)cc1 (stereo unspecified) | 117 to 120 |
| Cc1cc2c(S(C)(=O)=O)nc(OCC(F)(F)F)nc2s1 | 138 to 140 |
| O=c1[nH]c(=O)n(Cc2cccc(OCc3csc(-c4ccccc4)n3)c2)o1 | 139 to 140 |
| NNC(=O)c1cnc2n(c1=O)CCCCC2 | 184 to 186 |
| CCCCCCCCCCOc1ccc(C(=O)OCC(=O)OC)cc1 | 30 to 32 |
| CCC[C@H](NC(=O)CNC)C(=O)N[C@@H](CCCNC(=N)N)C(=O)N[C@@H](C)P(=O)(O)O | 200 |
| O=c1[nH]c(-c2ccc(CCN3CCN(c4cccc5ccccc45)CC3)cc2)cs1 | 307 to 309 |
| COC(=O)Cc1nc(-c2ccccc2)c(-c2ccccc2)o1 | 87 to 91 |
| Cc1ccc(-c2cc(C)cn2-c2ccc(S(N)(=O)=O)cc2)cc1 | 175 to 176 |
| COc1cc(OC)nc(NC(=O)NS(=O)(=O)c2ccccc2C=C2CCOC2=O)n1 | 185 to 190 |
| CC1(C)CCOc2ccc(C3(C)C=CC=CC3C=O)cc21 (stereo unspecified) | 85 to 86 |
| Cn1ncc2c1-c1c(Oc3ccc4c(c3)OCO4)sc(C(=O)NCc3ccncc3)c1CC2 | 202 to 204 |
| O=C(Nc1cnc2ccccc2c1)c1cc2cc(F)ccc2n1Cc1cccc(F)c1 | 244 to 246 |
| CCC=Cc1ncc(/C=C(\Cc2cccs2)C(=O)O)n1Cc1ccccc1Cl | 224 to 226 |
| Nc1nc2[nH]c(CCCCc3ccc(C(=O)N[C@@H](CCC(=O)O)C(=O)O)o3)cc2c(=O)[nH]1 | 174 to 175 |
| CCCCCOc1cc2c(cc1/C=C/c1ccc(C(=O)O)cc1)C(C)(C)CCC2(C)C | 148 to 149 |

More lines, now with the values ahead:

| melting point [°C] | Compound |
| --- | --- |
| 194 | CC1CCN(c2c(-c3c(F)cc(F)cc3F)c(Cl)nc3nc(S)nn23)CC1 |
| 101 to 102 | Clc1nc(Cl)c2cc(N3CCCCC3)ccc2n1 |
| 179 | Cn1ncnc1COc1nn2c(-c3c(F)cccc3F)nncc2c1-c1ccccc1 |
| 161 to 162 | CCCSc1sc(C(=O)OCC)c2c1-c1[nH]ncc1CC2 |
| 173 to 180 | O=C(/C=C/c1ccc(O)cc1)CC(=O)/C=C/c1ccccc1CO |
| 184 | O=S(=O)(c1cccc(-c2cc(-c3nc(-c4ccc(C(F)(F)F)cc4)cc(C(F)(F)F)n3)ccn2)c1)N1CCCC1 |
| 62.5 to 63.5 | CCOC(=O)C=CC(=O)c1ccc(Cl)cc1 |
| 97 to 99 | O=C(/C=C/c1ccc(OC(F)(F)F)cc1)/C=C/c1ccc(C(F)(F)F)cc1 |
| 171 to 174 | Cc1ccccc1NC(=O)NCC1(c2ccccc2)CCCCC1 |
| 265 | CC1CC(=O)NN=C1c1ccc2c(c1)nc(C1CC1)n2Cc1ccc(-c2ccccc2-c2nnn[nH]2)cc1 (stereo unspecified) |
| 172 to 173 | CCCn1ncc2c(=O)[nH]c(-c3cc(Br)ccc3OCC)nc21 |
| 148 to 149 | CC(=O)OCCn1ccc(=O)c(OCc2ccccc2)c1C(OC(C)=O)c1cccc(F)c1 (stereo unspecified) |
| 129 | CC(C)(C)C(O)C1C(C(=O)O)C1(C)C (stereo unspecified) |
| 164 to 167 | CN(N)C(=S)Nc1ccc([N+](=O)[O-])cc1Cl |
| 179 to 181 | Cc1ccc(C(=O)NC(NC(=S)Nc2cccc(C(F)(F)F)c2F)C(F)(F)F)cc1 (stereo unspecified) |
| 53 to 55 | CC(=O)/C(=C(/Br)I)c1ccccc1 |
| > 230 | C#CC#Cc1ccc(C(=O)O)cc1 |
| 250 to 251 | COc1cc2c(Oc3ccc4[nH]c(C)cc4c3)ncnc2cc1OCC1CCN(C)C(=O)C1 (stereo unspecified) |
| 119 to 120 | CC1=C(c2ccc(C(=O)N3Cc4cccn4Cc4ccccc43)cc2)CCCC1 |
| 75 to 77 | FC(F)(F)c1cc(Cl)c2nc(CCl)cn2c1 |
| 167 to 168 | Oc1ccc(-c2ncco2)cc1 |

| melting point [°C] | Compound |
| --- | --- |
| 104 to 107 | CN(C)CC(=O)N1Cc2cccc3c2N(CC3)c2ccccc21 |
| 116 to 119 | COc1ccc(/C=C(\C#N)c2ccc(Br)cc2)cc1OC1CCCC1 |
| 216 to 217 | COc1cc2c(=O)c(OS(C)(=O)=O)cn(C)c2cc1OC |
| 93 to 95 | CCc1cccc(CC(=O)O)c1OCCCc1cn(-c2ncc(C(F)(F)F)cc2Cl)nc1C(C)C |
| 124 to 125 | COc1cc(C=CC(=O)c2ccc(I)cc2O)cc(OC)c1OCc1ccccc1 |
| 86 to 88 | COc1ccc(C(=O)c2cccnc2)cc1[N+](=O)[O-] |
| 188 to 190 | COc1cc2[nH]c(C)c(C(=O)C(=O)N3CCC(C(=O)c4ccccc4)CC3)c2cc1OC |
| 110 to 115 | CC(C)(C)c1cc(=O)o[nH]1 |
| 56 to 57 | Clc1nc(SCc2ccccc2)ncc1Br |
| 166 to 168 | Cc1cnc2c(Br)cnn2c1-c1cccnc1 |
| 171 to 172 | Cc1cc(Nc2ccc(C#N)cc2)c([N+](=O)[O-])c(C)n1 |
| 182 to 183 | N#Cc1cccc(C2C=C(C(F)(F)F)NC3=C2C(=O)CCC3)c1 (stereo unspecified) |
| 94 to 95 | CCOC(=O)c1c2ccc(Cl)cc2c(-c2ccccc2)n1CCCC(C)=O |
| 158 to 161 | Cc1cccc(C(=O)CC(Cc2ccccc2)C(=O)O)c1 (stereo unspecified) |
| 160 to 162 | CCOC(=O)c1ncn2c1CN(C)C(=O)c1sccc1-2 |
| 138 to 140 | COc1cc(C(=O)NCC2c3ccccc3CCN2CCO)cc(OC)c1OC (stereo unspecified) |
| 168 | CCOc1ccc2c(c1)n(C1CCOCC1)c(=O)n2Cc1ccc(NC(=O)N(CC)CC)cc1OC |
| 267 to 269 | O=c1[nH]c2ncc(-c3ccncc3)nc2n1CC1CCCCC1 |
| 168 to 170 | CC(=O)Nc1ccc(OCc2nc3ccccc3s2)cc1 |
| 230 to 240 | CNC[C@@H]1CN(c2nc3c(cc2F)c(=O)c(C(=O)O)cn3C2CC2)C[C@@H]1F (relative stereo) |
